According to PMC9028786, “The Ribosome Is the Ultimate Receptor for Trypsin Modulating Oostatic Factor (TMOF)” (Biomolecules, 2022):
Ends that are not written are not given here.

What was measured:
[1] = tested on: E. coli ribosome; assay: Binding of AeaTMOF-FITC to purified E. coli ribosomes; parameters: species or system Escherichia coli
Description: The purification of E. coli ribosomes is a modification of earlier published methods. Briefly, E. coli (BL21) cells were grown in LB medium for 24 h to OD600 of 1.1, and the cells were centrifuged at 5000 rpm at 6 °C for 5 min. The supernatant was discarded and the pellet was washed with 40 mM HEPES-KOH pH7.4, 100 mM NaCl, and 2 mM Mg(OAc)2 buffer. The suspension was centrifuged at 6000 rpm for 5 min, the supernatant discarded, and the pellet was frozen at −80 °C and stored overnight. The frozen pellet was taken up in 10 mL of sonication buffer of 20 mM HEPES-KOH pH 7.5, 100 NH4OAc, 6 mM βME, 0.5 mM Na-EDTA, and 0.5% Tween 20 containing 100 units of RNase inhibitor, and the solution was sonicated at 40% power for 10 s, 50% power for 10 s, and 60% power for 20 s. During the sonication, the tube was immersed in an ice bath. The lysed cell solution (25 mL) in sonication buffer was centrifuged at 30,000 g in a Beckman ultracentrifuge using a 70Ti centrifuge rotor for 30 min at 4 °C. After centrifugation, the supernatant was collected, and the pellet discarded. […] The amount of the protein in the ribosome preparation and the ribosomal RNA was determined (2.28 mg/mL protein and 3.932 mg/mL ribosomal RNA). […]
Purified E. coli ribosomes (1 μL, 9.4 μg) in tight association buffer (20 mM HEPES-KOH pH 7.6, 6 mM Mg(OAc)2, 30 mM NH4OAc, and 6 mM βME) were incubated in Eppendorf tubes containing 100 μL of tight association buffer and 5 μL of AeaTMOF-FITC (0–0.2 μM) (Specific activity 8333 Fluorescence Units/pmol) for 60 min at 30 °C with gentle shaking. […] The washing by centrifugation with 5% TCA was repeated 3 times, and after the final centrifugation, the pellets were dissolved in 100 μL of PBS containing 0.4N NaOH, and the fluorescence of the dissolved pellets was read in a GloMax multidetector system using a blue filter (Excitation at 490 nm and Emission at 510–570 nm). All data were corrected for nonspecific fluorescence when incubations were run without AeaTMOF-FITC or with AeaTMOF-FITC and without ribosomes. […]

[2] = tested on: trypsin mRNA in the gut epithelial cells; settings: gut epithelial cells of Ae. aegypti and Neobellieria bullata; cited from earlier work
Source text: Several of these ABC transporters with 80–100% similarity with the AeaTMOF receptor are also found in several Aedes, Anopheles, and ...

[3] = tested on: bacterial 70 S ribosome; assay: Inhibition of luciferase translation in E. coli S30 extract; type: biochemical, Escherichia coli
Description: To test the effect of AeaTMOF and Oncocin112 (1–13) on the translation of Luciferase by the bacterial 70 S ribosome, an E. coli S30 lysate extract system for circular DNA (Promega) containing a plasmid pBestluc DNA vector (4486 bp) (1 mg/mL) 0.3 μL, amino acid mixture without methionine (1 mM) 1.25 μL, amino acid mixture without Leucine (1 mM) 1.25 μL, S30 premix (including ribosomes) without amino acids 5 μL, S30 extract circular 3.5 μL, RNasin (8 U, 112 ng) 0.2 μL, different concentrations of AeaTMOF or Oncocin112 (1–13) (0.001 μM to 1000 μM), and nuclease-free water to a volume of 12.5 μL were incubated for 2 h at 37 °C. […] After incubation, 87.5 μL of GLO lysis buffer (Promega) containing beetle luciferin was added, mixed, and aliquots (5 μL) were removed, and their luminescence read in a GLOMAX multidetector system. […] The decrease in luminescence (% ± SEM) in the presence of increasing log AeaTMOF or Oncocin112 (1–13) concentrations was then plotted using GrapPad Prism 3.

[4] = tested on: luciferase; assay: Effect on activity of pre-synthesized luciferase; type: biochemical, Beetle; settings: results not shown
Description: Incubations of E. coli S30 extract synthesizing Beetle luciferase in the presence of an increasing concentration of AeaTMOF (0.001 to 750 μM) stopped the biosynthesis of luciferase, diminishing its activity on Beetle luciferin as measured in luminescence units. The activity of the in vitro synthesized luciferase on Beetle luciferin at very low concentration of AeaTMOF (0.001 μM) was similar to luciferase activity without AeaTMOF, and this luminescence was used to calculate the decrease in luminescence (%) after incubation with increasing concentrations of AeaTMOF (Figure 1A). Higher concentrations of AeaTMOF (higher than 0.001 μM) caused a linear decrease in the synthesis of luciferase and a decline in luminescence (%) reaching IC50 (inhibition concentration of 50%) at 1 μM (Figure 1A). […] AeaTMOF is not an inhibitor of luciferase.

[5] = tested on: E. coli mutant cells CGSC strain 8547 SbmA^- expressing only ABC-tmfA importer; assay: Growth/viability of E. coli mutant CGSC strain 8547 SbmA^- expressing ABC-tmfA importer; type: cell-based, Escherichia coli
Description: E. coli CGSC strain […] lacking the SbmA importer expressing the ABCtmfA receptor/importer was prepared using plasmid pTAC-MAT-2 ABCtmfA importer/receptor as described earlier. [3,4,5 ^3H]Leucine 250 μCi, Spc Act 100–150 Ci/mmol was purchased from Perkin Elmer (Waltham, MA, USA). AeaTMOF-FITC (H-YDPAPPPPPPK(FITC)K-OH) was synthesized at the University of Colorado Anschutz School of Medicine protein core. AeaTMOF-FITC was purified by HPLC showing a single peak, and mass spectrometry analysis of the peak identified the 3 expected ions at 455.7, 607.3, and 910.3, showing an expected Mr 1019.56 as was described earlier. Synthetic AeaTMOF (H-YDPAPPPPPP-OH) and a short Oncocin112(1–13) (H-VDKPPYLPRPRPP-OH), a 13 amino acids oncocin112 peptide, 6 amino acids shorter than the original oncocin112 of 19 amino acids, were synthesized and purified by HPLC [16]. After HPLC purifications of AeaTMOF, oncocin112 (1–13), and AeaTMOF-FITC, the TFA ions were exchanged with phosphate ions.
(§1) We aimed to find out if AeaTMOF can also stop bacterial growth as, was shown for the proline-rich Oncocin112 that binds to the bacterial ribosome, stopping protein translation, bacterial growth, and causing bacterial death. E. coli CGSC strain7636 (2.7 × 10^4 cells) SbmA^+, expressing the proline-rich peptides importer SbmA, were incubated in 96-well plate containing 100 μL/well of LB medium, 0.4 mM of IPTG, 0.1 mM of ampicillin, and different concentrations of AeaTMOF and Oncocin112 (1–13) (3 mM and 10 mM) in different wells. The 96-well plate was incubated at 37 °C for 18 h and bacterial growth was followed at 630 nm using Biotech ElX808 absorbance microplate reader. Control wells contained bacterial cells growing without AeaTMOF or oncocin112 (1–13). […] After the incubations in the presence of Oncocin112 (1–13) or AeaTMOF of 10 mM and 3 mM, aliquots (0.5 μL) were removed from each well and spread on LB agar plates containing 0.1 mM of ampicillin, and the plates were incubated overnight at 37 °C and viable colonies were counted. Incubations were done in triplicates and the experiments were repeated twice. Results are expressed as means of three determinations ± SEM.

[6] = tested on: E. coli CGSC strain7636 cells expressing SbmA^+; assay: Growth/viability of E. coli CGSC strain7636 expressing SbmA; type: cell-based, Escherichia coli; settings: 3 and 10 mM peptide, 37 °C, 18 h, p < 0.05 vs control
Description: as §1

For “H-YDPAPPPPPPK(FITC)K-OH [AeaTMOF-FITC, H-[…](FITC)K-OH, FITC-labelled AeaTMOF]”, the “Kassoc, affinity constant” value ([1]; calculated from specific binding KD) was 4.3e+07 M⁻¹, the Kd ([1]; purified E. coli (BL21) ribosomes 9.4 μg, AeaTMOF-FITC 0–0.2 μM, tight association buffer pH 7.6, 60 min at 30 °C, TCA precipitation, fluorescence, nonspecific binding subtracted, nonlinear regression, ± SEM, n = 6) was 23 ± 3.4 nM and the “Bmax, ribosome binding” value ([1]; purified E. coli ribosomes, AeaTMOF-FITC 0–0.2 μM, pH 7.6, 60 min at 30 °C, fluorescence, nonlinear regression, ± SEM, n = 6) was 0.553 ± 0.023 pmol/μg ribosome.

For “NPTNLH [NebTMOF, NPTNLH, trypsin modulating oostatic factor of Neobellieria bullata, reference compound]”, the “Effect on translation of trypsin mRNA” value [2] is listed as “stop the translation of trypsin mRNA”.

In the case of “VDKPPYLPRPRPP [Oncocin112 (1–13), reference compound]”, the “Inhibition of luciferase biosynthesis at lowest concentration” value ([3]; AeaTMOF at 0.001 μM, Oncocin112 (1–13) at 0.01 μM, 2 h at 37 °C) is reported as “do not inhibit the biosynthesis of luciferase”, the IC50 ([3]; E. coli S30 lysate, pBestluc DNA, 2 h at 37 °C, peptide 0.001 to 750 μM, luminescence read-out, mean of three determinations, read-out: IC50, inhibition of luciferase biosynthesis (luminescence)) is reported as 2000 nM and the “IC50 increase compared with AeaTMOF” value ([3]; IC50 2 μM versus AeaTMOF) is reported as “twofold increase”. For the same substance, the “Effect on Beetle luciferase biosynthesis versus activity” value [4] was “inhibits Beetle luciferase biosynthesis and not its activity”, the E. coli growth ([5]; SbmA^- cells expressing ABC-tmfA importer, 3 and 10 mM peptide, 37 °C, 18 h, 630 nm, p < 0.05 for inhibition) was “grew at the same rate” and the “E. coli cell growth (discussion)” value ([5]; cells that only expressed ABCtmfA receptor/importer, up to 10 mM) was “did not affect the cell growth, even at high concentrations of 10 mM”. The Importer used ([5]; inferred from growth of SbmA^+ and SbmA^- ABC-tmfA E. coli, 3 and 10 mM) was “can only use the bacterial natural importer SbmA”, the E. coli growth ([6]; 630 nm) was “significantly inhibited the growth of the E. coli cells” and the “Viable colonies at end of incubation” value ([6]; initial 2.7 × 10^4 cells, LB medium, plated on LB agar, triplicates) was 4–10 colonies.
